Legend:
[1] = biological target: T1, retinoic acid receptor (RAR) (Homo sapiens, UniProt P10276); assay: Receptor binding assay using human promyelocytic leukemia cell HL60 (nuclear extract), inhibition of 3H-all-trans retinoic acid binding to RAR; conditions: HL60 cell nucleus extract, 4° C., 16 hours
T1 construct: by the use of an extract from HL 60 cell nuclei; endogenous in cells; host or cells: HL60 human promyelocytic leukemia cells, 0.8 M KCl nuclear extract
T1 sequence (P10276 1-462): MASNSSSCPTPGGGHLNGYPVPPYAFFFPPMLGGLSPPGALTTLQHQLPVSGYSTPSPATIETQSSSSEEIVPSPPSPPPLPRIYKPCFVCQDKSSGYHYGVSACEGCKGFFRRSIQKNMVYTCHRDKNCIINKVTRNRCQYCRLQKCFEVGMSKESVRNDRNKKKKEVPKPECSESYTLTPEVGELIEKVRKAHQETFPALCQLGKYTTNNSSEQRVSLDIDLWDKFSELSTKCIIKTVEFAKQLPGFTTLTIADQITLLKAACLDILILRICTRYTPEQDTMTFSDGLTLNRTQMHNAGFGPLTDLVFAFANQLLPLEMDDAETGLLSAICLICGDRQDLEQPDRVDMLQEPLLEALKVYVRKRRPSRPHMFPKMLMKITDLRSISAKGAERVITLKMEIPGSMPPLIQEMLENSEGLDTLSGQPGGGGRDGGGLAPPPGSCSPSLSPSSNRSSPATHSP
Description: Receptor binding assay using human promyelocytic leukemia cell, HL60
It has been known that a receptor for all-trans retinoic acid [i.e., retinoic acid receptor (RAR)] is present in the nucleus of HL 60 cell (see Clara Nervi et al., Proc. Natl. Acad. Sci. USA, 86, 5854 (1989)). Therefore, the extent of specific binding of all-trans retionic acid to RAR was determined by the use of an extract from HL 60 cell nuclei; and the ability of each compound to bind to RAR was determined based on the inhibitory activity of the compound against the above specific binding.
The above cell nucleus extract was prepared as follows.
HL 60 cells (5×10^8) were suspended in 15 ml of a solution A [comprising 5 mM of sodium phosphate (pH: 7.4), 10 mM of monothioglycerol,10% (v/v) of glycerol, 1 mM of phenylmethylsulfonyl fluoride (PMSF), 10 μg/ml of aprotinin and 25 μg/ml of leupeptin). The obtained suspension was homogenized with a homogenizer and centrifuged to remove a formed supernatant. The obtained sediment was suspended in 15 ml of a solution B [comprising 10 mM of Tris-HCl (pH: 8.5), 10 mM of monothioglycerol, 10% (v/v) of glycerol, 1 mM of PMSF, 10 μg/ml of aprotinin, 25 μg/ml of leupeptin and 0.8 M of KC1]. The obtained suspension was allowed to stand at 4° C. for one hour and ultracentrifuged (under the conditions of 100,000×g and 4° C. for one hour). The supernatant thus obtained was stored in a state freezed at -80° C. and used as the cell nucleus extract [see Methods in Enzymology, 189: 248).
The receptor binding assay was conducted as follows.
180 μl of the above extract and 10 μl of a dilution of all-trans retionic acid or a compound to be tested were put in each well of a 96-well polypropylene plate, followed by the addition thereto of ^3 H-all-trans retionic acid in an amount of 10 μl/well. The plate was allowed to stand at 4° C. for 16 hours. A solution containing 3% of charcoal and 0.3% of dextran was added to the reaction mixture in the well and the obtained mixture was centrifuged to remove free ^3 H-all-trans retionic acid. The intensity of radiation of the supernatant was determined with a scintillation counter. The extent of specific binding of all-trans retinoic acid to RAR was determined by taking the intensity of radiation, observed when 200-fold excess of all-trans retinoic acid was added, as that of a nonspecific binding, and substracting the intensity of radiation thus taken from that of the one determined above.

[2] = system: HL60 cell; assay: Antagonism against all-trans retinoic acid in inducing the differentiation of HL60 cell (CD11b-positive cells, flow cytometry); assay type: cell-based; conditions: Homo sapiens, HL-60, 120 h, all-trans retinoic acid 30 nM, 5 days
Description: Antagonism against all-trans retinoic acid in inducing the differentiation of HL60 cell
It has been known that a human promyelocytic leukemia cell strain HL60 is differentiated into granulocytic cells in the presence of all-trans retinoic acid (see Breitman, T., Selonick, S., and Collins, S., Proc. Natl. Acad. Sci. USA, 77, 2936(1980)). Generally, a cell forms a specific differentiation antigen on its surface, when it has achieved differentiation. When an HL60 cell is differentiated into a granulocytic cell, CD11b which is an antigen discriminating granulocyte or monocute is formed on the surface of the cell (see Fontana, J. A., Reppuci, A., Durham, J. P., and Mirand, D., Cancer Res. 46, 2469 to 2473 (1986)). The antagonism against the differentiation of HL60 into granulocytic cell which is induced by all-trans retionic acid was studied by utilizing the above phenomenon.
HL60 cells were cultured and maintained in a culture medium prepared by adding 10% of inactivated bovine fetus serum, 1 mM of sodium pyruvate, 50 μM of β-mercaptoethanol, 100 I.U./ml of penicillin and 100 μg/ml of streptomycin to RPMI1640 (a culture medium formulated in Rosewell Park Memorial Institute).
The resulting plate was incubated in an incubator (5% CO2 /air) for 5 days. After the incubation, the cells of each well were recovered into a test tube, followed by the addition thereto of an FITC-labeled monoclonal antibody reactive with CD11b which is an antigen specific to granulocyte or monocute. The resulting cells were immobilized with 0.2% paraformaldehyde. The immobilized cell suspension was examined by flow cytometry for the proportion of CD11b-positive cells in the above HL60 cell group in each well (see Miller, L. J., Schwarting, R., and Springer, T. A., J. Immunol. 137, 2891 to 2900 (1986)).

| Structure (SMILES) | IC50 [1] | IC50 [2] |
| --- | --- | --- |
| CCCCCn1cc(-c2ccc(C(=O)O)cc2)c2c1-c1cc3c(cc1CC2)C(C)(C)CCC3(C)C [Example 22] | 32 nM | 14000 nM |
| CCCCCCCOc1cc2c(cc1/C(C)=C/c1ccc(C(=O)O)cc1)C(C)(C)CCS2(=O)=O [Example R041-5253, reference compound] | 9 nM | 7200 nM |
| CC1(C)CCC(C)(C)c2cc3c(cc21)CCc1c(-c2ccc(C(=O)O)cc2)cn(-c2cccnc2)c1-3 [Example 19] | 0.5 nM | 480 nM |
| CC1(C)CCC(C)(C)c2cc3c(cc21)CCc1c(-c2ccc(C(=O)O)cc2)cn(-c2ccccc2)c1-3 [Example 18] | 4.2 nM | 2700 nM |
| CC1(C)CCC(C)(C)c2cc3c(cc21)CCc1c(-c2ccc(C(=O)O)cc2)cn(Cc2cccnc2)c1-3 [Example 16, 4-[4,5,7,8,9,10-Hexahydro-7,7,10,10-tetramethyl-1(3-pyridylmethyl)anthra[1,2-b]pyrrol-3-yl]benzoic acid] | < 0.5 nM | 120 nM |
| Cn1nc(-c2ccc(C(=O)O)cc2)c2ccc3cc4c(cc3c21)C(C)(C)CCC4(C)C [Example 14, 4-(7,8,9,10-Tetrahydro-1,7,7,10,10-pentamethylanthra-[2,1-d]pyrazol-3-yl)benzoic acid] | 50 nM | 2200 nM |

Next, values leading:

| IC50 [1] | IC50 [2] | Structure (SMILES) |
| --- | --- | --- |
| 4 nM | 700 nM | CCn1nc(-c2ccc(C(=O)O)cc2)c2c1-c1cc3c(cc1CC2)C(C)(C)CCC3(C)C [Example 1, 4-(1-Ethyl-4,5,7,8,9,10-hexahydro-7,7,10,10-tetramethylanthra[2,1-d]pyrazol-3yl)benzoic acid] |
| 26 nM | 3800 nM | CC1(C)CCC(C)(C)c2cc3c(cc21)CCc1c(-c2ccc(C(=O)O)cc2)coc1-3 [Example 106, 4-(4,5,7,8,9,10-Hexahydro-7,7,10,10-tetramethylanthra-[1,2-b]furan-3-yl)benzoic acid] |
| 50 nM | 6700 nM | CC(C)n1nc(-c2ccc(C(=O)O)cc2)c2c1-c1cc3c(cc1CC2)C(C)(C)CCC3(C)C [Example 2] |
| 22 nM | 560 nM | Cn1nc(-c2ccc(C(=O)O)cc2)c2c1-c1cc3c(cc1CC2)C(C)(C)CCC3(C)C [Example 7, 4-(4,5,7,8,9,10-Hexahydro-1,7,7,10,10-pentamethylanthra[2,1-d]pyrazol-3-yl)benzoic acid] |
| < 0.5 nM | 1000 nM | CC1(C)CCC(C)(C)c2cc3c(cc21)CCc1c(-c2ccc(C(=O)O)cc2)nn(Cc2ccccc2)c1-3 [Example 4] |
| 9 nM | 1200 nM | Cn1nc(-c2ccc(C(=O)O)cc2)c2c1-c1cc3c(cc1SC2)C(C)(C)CCC3(C)C [Example 11] |

From US5612356A, “Heterocycle-containing carbonic acid derivatives” (Eisai Co., Ltd., priority 1992, dated 1997)
